Tests used:
[1] = test system: MCF‐7 cells; assay: CCK‐8 cell viability assay, MCF‐7; assay type: cell-based, human; settings: for viability of MCF‐7 cells: CCK‐8, 48 h, triplicate, peptides 5–45 μg·mL^−1, 5‐FU positive control 0.1–5 mM, vs negative control
Text: (§1) Human breast cancer MCF‐7 (RRID:CVCL_0031), human lung cancer A549 (RRID:CVCL_0023), human colon cancer HCT‐116 (RRID:CVCL_0291), human cervical cancer Hela (RRID:CVCL_0030), human hepatoma HepG2 (RRID:CVCL_0027), human gastric cancer SGC‐7901 (RRID:CVCL_0520) and human non‐tumor mamma gland epithelial MCF‐10A (RRID:CVCL_0598) and transformed human liver epithelial‐2 (THLE‐2) (RRID:CVCL_3803) cells were obtained from Shanghai Donghuan Biotechnology (Shanghai, China). All cell lines had been authenticated in the past 3 years and again within 4 months after completion of the experiments. All cell lines had been tested for mycoplasma contamination frequently. Their identities were characterized by short tandem repeat analysis. All of these cell lines were cultured in high glucose Dulbecco's modified Eagle's medium supplemented by 10% fetal bovine serum, 100 units·mL^−1 penicillin and 100 μg·mL^−1 streptomycin (complete culture medium).
(§2) MCF‐7 cells (1 × 10^4 cells per well) were treated in triplicate with different doses of each type of RC extract in 96‐well plates for varying time periods. The negative control cells were treated with the diluent of physiological saline, whereas positive control cells were treated with different concentrations (0.1–5 mM) of 5‐fluorouracil (5‐FU) (Leica, Wetzlar, Germany). During the last hour of culture, each well of cells was treated with 10 μL of CCK‐8 solution. The absorbance of the supernatants of individual wells was measured at 450 nm using a microplate reader. Similarly, the effect of different synthesized RCPs (5–45 μg·mL^−1) on the viability of different types of human cancer cells was tested with CCK‐8 assays using the diluent of physiological saline containing the same concentration of dimethylsulfoxide as a negative control and the same concentrations of 5‐FU as the positive controls. Ten RCPs with a predicted strong bioactivity were synthesized by GenScript ([…]) and their purity, sequences and solubility are shown in Table 1. […] The formula used to calculate the cytotoxicity rate of each concentration of RCP was: Cytotoxicity rate (%) = (absorbance value of the control group − absorbance value of the experimental group)/absorbance value of the control group × 100%. In addition, MCF‐7 cells were treated with each type of RCP at 45 μg·mL^−1 for 12–72 h and the dynamic impact of RCP treatment on the viability of MCF‐7 cells was determined every 12 h using CCK‐8 assays.
(§3) Data are expressed as the mean ± SEM. The data distribution was analyzed by Shapiro–Wilk test. The IC50 values of each peptide for individual cell lines were determined using the PRISM, version 8 (GraphPad Software Inc.). Briefly, all dose–response data were converted into […], which were automatically analyzed by PRISM for non‐linear regression to determine and report the IC50 and its SD for each peptide in a specific cell line. The difference among groups was analyzed by analysis of variance and post‐hoc Tukey's tests and the comparison between groups was performed using Student's t‐test and PRISM, version 8 (GraphPad Software Inc.). P < 0.05 was considered statistically significant.

[2] = test system: MCF‐10A cells; assay: CCK‐8 cell viability assay, non‐tumor MCF‐10A; assay type: cell-based, human; settings: CCK‐8, 48 h, triplicate; peptides 5–45 μg·mL^−1; 5‐FU positive control 0.1–5 mM; vs negative control
Text: as §1, §2, §3

[3] = test system: cancer cells (MCF‐7, A549, HCT‐116, Hela, HepG2, SGC‐7901) vs non‐tumor MCF‐10A and THLE‐2 cells; assay: CCK‐8 cytotoxicity, preference for cancer cells over non‐tumor cells; assay type: cell-based, human; set-up: cytotoxicity against non‐tumor MCF‐10A and THLE‐2 cells compared with tumor cell lines: dose or concentration left out as unconfirmed; settings: for preference of cytotoxicity for cancer cells over non‐tumor cells: 5–45 μg·mL^−1, 48 h, CCK‐8
Text: as §1, §2, §3

[4] = test system: SGC‐7901 cells; assay: CCK‐8 cell viability assay, SGC‐7901; assay type: cell-based, human; settings: CCK‐8, 48 h, triplicate; peptides 5–45 μg·mL^−1; 5‐FU positive control 0.1–5 mM; vs negative control
Text: as §1, §2, §3

[5] = test system: A549 cells; assay: CCK‐8 cell viability assay, A549; assay type: cell-based, human; settings: CCK‐8, 48 h, triplicate; peptides 5–45 μg·mL^−1; 5‐FU positive control 0.1–5 mM; vs negative control
Text: as §1, §2, §3

[6] = Solubility of the synthesized peptides; assay type: physicochemical; settings: for Solubility: solvent given for the synthesized peptide (GenScript)
[7] = test system: HepG2 cells; assay: CCK‐8 cell viability assay, HepG2; assay type: cell-based, human; settings: CCK‐8, 48 h, triplicate; peptides 5–45 μg·mL^−1; 5‐FU positive control 0.1–5 mM; vs negative control
Text: as §1, §2, §3

[8] = test system: Hela cells; assay: CCK‐8 cell viability assay, Hela; assay type: cell-based, human; settings: CCK‐8, 48 h, triplicate; peptides 5–45 μg·mL^−1; 5‐FU positive control 0.1–5 mM; vs negative control
Text: as §1, §2, §3

[9] = test system: THLE‐2 cells; assay: CCK‐8 cell viability assay, non‐tumor THLE‐2; assay type: cell-based, human; settings: CCK‐8, 48 h, triplicate; peptides 5–45 μg·mL^−1; 5‐FU positive control 0.1–5 mM; vs negative control
Text: as §1, §2, §3

[10] = test system: HCT‐116 cells; assay: CCK‐8 cell viability assay, HCT‐116; assay type: cell-based, human; settings: CCK‐8, 48 h, triplicate; peptides 5–45 μg·mL^−1; 5‐FU positive control 0.1–5 mM; vs negative control
Text: as §1, §2, §3

| Sequence | viability of MCF‐7 cells [1] | viability of non‐tumor MCF‐10A cells [2] | preference of cytotoxicity for cancer cells over non‐tumor cells [3] | viability of SGC‐7901 cells [4] | viability of A549 cells [5] | Solubility [6] | viability of HepG2 cells [7] | viability of Hela cells [8] | viability of non‐tumor THLE‐2 cells [9] | viability of HCT‐116 cells [10] | dynamic cytotoxicity against MCF‐7 cells ([1]; 45 μg·mL^−1, 12–72 h, CCK‐8 every 12 h, maintained at highest levels to 72 h) | cytotoxicity against non‐tumor MCF‐10A and THLE‐2 cells compared with tumor cell lines ([3]; 48 h, P < 0.05 or P < 0.01) | aqueous solubility ([6]; in words) |
| --- | --- | --- | --- | --- | --- | --- | --- | --- | --- | --- | --- | --- | --- |
| IYAPDSPRAF [RCP‐10, synthesized 10‐mer renal cell peptide from Vanin 1, protamex‐digested] | decreased the viability | decreased the viability | did not preferably decrease the viability of tumor cells | decreased the viability | decreased the viability | Water, pH 7.0 | decreased the viability | decreased the viability | decreased the viability | decreased the viability | – | – | – |
| QQHMKFGKKCWRKVWALLYA [RCP‐1, synthesized 20‐mer renal cell peptide from Docking protein 3, trypsin digested] | significantly decreased the viability | only treatment with the highest doses of them slightly reduced the viability | potent cytotoxicity preferably against cancer cells | significantly decreased the viability | significantly decreased the viability | 0.1% Dimethylsulfoxide | significantly decreased the viability | significantly decreased the viability | only treatment with the highest doses of them slightly reduced the viability | significantly decreased the viability | increased with time from 12 h post treatment to 48 h | statistically lower than tumor cell lines | low aqueous solubility |
| GPAGPQGPR [RCP‐3, synthesized 9‐mer renal cell peptide from Collagen alpha‐1 (I) chain, trypsin digested] | decreased the viability | decreased the viability | did not preferably decrease the viability of tumor cells | decreased the viability | decreased the viability | Water, pH 7.0 | decreased the viability | decreased the viability | decreased the viability | decreased the viability | – | – | – |
